Measured values taken from US7534558B2, “In vitro diagnostic test for enterovirus infections” (Universite de Lille 2 Droit Et Sante, priority 2003, dated 2009).
Entries after “also recorded” stand apart in the source; their conditions may differ.

How the values were obtained:
[1] = tested on: anti-VP4 antibodies in plasmas or serums; assay: ELISA of plasmas/serums on wells coated with VP4 protein or VP4 peptides; format: binding, human; conditions: for OD in ELISA assay compared with the VP4 protein: 40 serums from patients and 40 controls; for Mean value of OD ratio (OD / OD of negative control), ELISA: diluted 1/50, antigen coated at 5 μg/ml, 490 nm
Procedure: 40 plasmas from non diabetic patients and 40 plasmas or serums from diabetic patients were assayed.
The VP4 protein or the 5 VP4 peptides, diluted at 5 μg/ml in PBS buffer pH=7.4, are coated in the wells of a microplate of 96 wells (FluoroMunc, MaxiSorp surface, NUNC, Danemark) at the rate of 100 μl/well. The plates are incubated for 1 hour at 37° C. under humid atmosphere, then left for 24 h at room temperature. After 3 washings with PBS buffer, the wells are saturated with 300 μl of saturation buffer for 1 hour at 37° C. under humid atmosphere, before washing 3 times with the washing buffer. Then 250 μl of post-coating buffer are added to each well and the plates are incubated for 24 h at room temperature, then stored at 4° C. until use.
The wells coated with the VP4 protein or the different peptides VP4 are washed 3 times with washing buffer in order to remove the post-coating solution. Then 100 μl of the plasmas or serums diluted to 1/50th in dilution buffer are added to different wells and the plates are incubated for 1 hour at 37° C. under humid atmosphere. Simultaneously, a negative control well containing 100 μl of dilution buffer is carried out. Then the wells are washed 3 times with the washing solution and 100 μl of secondary antibody solution are added to each well. After incubation for 1 h at 37° C. under humid atmosphere, the wells are washed 5 times with the washing solution and 100 μl of substrate solution are added to each well. The plates are incubated for 30 minutes at room temperature and in the dark. The coloured reaction is stopped by addition of 25 μl of H2SO4 2M (1M) per well and the plates are read in a plate reader at a wavelength of 490 nm.
ODs obtained for each serum with the VP4 protein and the different peptides VP4 were divided by the OD obtained with the negative control. The following Tables show the mean +/− standard deviation of the rates of OD obtained with the two series of assayed serums (Patient=diabetic patients, Control=not diabetic). (see FIGS. 8 à 10)

[2] = tested on: CVB4E2/plasma induced IFNα production by PBMCs; assay: CVB4E2/plasma induced IFNα production by PBMCs (DELFIA); format: cell-based, human
Procedure: (§1) VP4, H antigen or mock proteins were preincubated for 1 h at 37° C. at different concentrations with plasma from 5 healthy subjects diluted at optimal dilution (1/10 or 1/100 ). CVB3 or CVB4 were then added for 1 hour before incubating with PBMCs. […] On the contrary, the mock proteins isolated from non-infected Hep-2 cells have non effect on the IFNα production.
PBMCs separated from whole heparinated blood are distributed into microwells (plate of 96 wells), at the rate of 5 to 8.10^5 cell in 100 μl of supplemented RPMI medium by well. The infection of PBMC is made with a final volume of 100 μl of preparation in each well. After incubation for 48 h at 37° C. under a 5% CO2 atmosphere and 90% humidity, the supernatant is harvested and used immediately for IFNα dosage, or clarified by centrifugation for 10 minutes at 180×g and stored at −80° C. until dosage of the produced IFNα.
(§2) The concentration of the produced IFNα is determined with a sensitive and specific technique, the DELFIA method (Dissociation Enhanced Lanthanide FluoroImmmoAssay) (Rönnblom and al 1997).
(§3) The dosage of IFNα is performed following the DELFIA principle (Dissociation Enhanced Lanthanide FluoroImmunoAssay), based on a immunofluorescence in retarded phase method using antibodies binding IFNα of which one is labelled with europium. The use of an activation solution will release the europium conjugated with antibodies and emit a fluorescence proportional to the amount of produced IFNα and measured with a fluorometer (fluorometer LKB Wallac 1230 ARCOSO®, Turku, Finlande).
Monoclonal anti-IFNα antibodies LT 273 (5.4 mg/ml) and LT 293 (4.8 mg/ml) supplied by Dr Gunar Alm (Uppsala, Sweden) are coated to the bottom of the wells after an incubation for 12 hours at room temperature. These plates can be stored in a buffer at 4° C. or are used immediately. Standard samples of human IFNα are prepared with an “irrelevant” monoclonal mouse antibody IgG1 in order to establish the reference curve (10 measurements). The other samples to be analysed are added to each well (100 μl) with the dilution buffer and the “irrelevant” antibodies and incubated for 2 hours with gentle stirring at room temperature. The wells are washed 3 times with the washing solution. The antibody conjugated to europium (200 μl) is added to each well, left to incubate for 1 hour at room temperature with gentle stirring. The plate is washed 6 times with a washing solution. The activation solution (200 μl), added immediately after washing and left for 20 to 30 minutes for incubation in the well, causes a cleavage of the europium bound to the antibody fixed to IFNα, emitting a fluorescence measured with the fluorescence reader (LKB Wallac 1230 ARCUS®). The IFNα concentration will be calculated from the values of the measured fluorescence by means of the Graphpad program (San Diego, USA). The detection threshold of IFNα is of 0.5 IU/ml.
The plasma from a healthy donor (optimal dilution 1/10th or 1/100th) is pre-incubated for 1 hour at 37° C. with the recombinant VP4 protein of CVB4E2 (optimal concentration at 1 μg/ml). The whole is incubated again for one hour at 37° C. in the presence of the CVB4E2 virus (dilutions at 1/10th or 1/100th; viral titer at 10^13 TCID50/ml) then applied to the PBMCs, (5.10^5/well) to incubate for 48 hours.
In the same way, the plasma preparation preincubated for 1 hour and VP4 of CVB3 are incubated for 1 hour with CVB4E2 before infecting the PBMCs for 48 hours and determinating the amount of the produced IFNα.
The virus (CVB4E2 or CVB3) infected PBMCs in the presence of plasma are deemed to be positive controls of this experimentation. The negative controls are obtained with one well of PBMC alone, one well of virus CVB4B2 alone and one well of CVB3 alone.
The CVB4E2 induced IFNα production in cultures of PBMCs previously incubated in the presence of plasma from healthy subjects was measured. […]

[3] = tested on: CVB3/plasma induced IFNα production by PBMCs; assay: CVB3/plasma induced IFNα production by PBMCs (DELFIA); format: cell-based, human; conditions: protein preincubated 1 h at 37°C at different concentrations with plasma from healthy subjects, then CVB3, then PBMCs
Procedure: as §1
PBMCs separated from whole heparinated blood are distributed into microwells (plate of 96 wells), at the rate of 5 to 8.10^5 cell in 100 μl of supplemented RPMI medium by well. The infection of PBMC is made with a final volume of 100 μl of preparation in each well. […]
as §2
as §3, with “Finlande). […]” for “Finlande).”

[4] = Patient = 40 serums of diabetic patients
[5] = Control = 40 serums of non diabetic patients

Molecule	OD in ELISA assay compared with the VP4 protein [1]	Mean value of OD ratio (OD / OD of negative control), ELISA [1, 4]	Mean value of OD ratio (OD / OD of negative control), ELISA [1, 5]	other results
CSCC[C@H](N)C(=O)NCC(=O)N[C@@H](C)C(=O)N[C@@H](CCC(N)=O)C(=O)N[C@H](C(=O)N[C@@H](CO)C(=O)N[C@H](C(=O)N[C@@H](CCC(N)=O)C(=O)N[C@@H](CCCCN)C(=O)N[C@H](C(=O)NCC(=O)N[C@@H](C)C(=O)N[C@@H](Cc1c[nH]cn1)C(=O)N[C@@H](CCC(=O)O)C(=O)N[C@H](C(=O)N[C@@H](CO)C(=O)N[C@@H](CC(C)C)C(=O)N[C@@H](CO)C(=O)N[C@@H](C)C(=O)N[C@@H](CO)C(N)=O)[C@@H](C)O)[C@@H](C)O)[C@@H](C)O)C(C)C [VP4-P1]	comparable to the VP4 protein	1.450	–	–
CC[C@H](C)[C@H](NC(=O)[C@H](CC(N)=O)NC(=O)[C@@H](NC(=O)[C@H](Cc1ccc(O)cc1)NC(=O)[C@H](Cc1c[nH]cn1)NC(=O)[C@@H](NC(=O)[C@@H](NC(=O)[C@H](CO)NC(=O)[C@H](CC(N)=O)NC(=O)CNC(=O)[C@H](CO)NC(=O)[C@H](C)NC(=O)[C@H](CO)NC(=O)[C@H](CC(C)C)NC(=O)[C@H](CO)NC(=O)[C@@H](NC(=O)[C@H](CCC(=O)O)NC(=O)[C@H](Cc1c[nH]cn1)NC(=O)[C@H](C)NC(=O)CN)[C@@H](C)O)[C@@H](C)CC)[C@@H](C)CC)[C@@H](C)O)C(N)=O [VP4-P2]	comparable to the VP4 protein; also recorded: same behaviour as VP4; also recorded: recognizes a higher level of antibodies with diabetics as with non-diabetics	2.373	0.691	Mean value of OD ratio (OD / OD of negative control), ELISA ([1]; Patient = 40 serums of diabetic patients, listed as Peptide P2): 2.376; effect on IFNα production during infection of PBMCs with CVB4E2 in the presence of plasma ([2]; plasma 1/100th, peptide at three concentrations (FIG. 11, tracks 7 to 9)): diminution of the dose-dependent IFNα production
CC[C@H](C)[C@H](NC(=O)[C@H](CC(N)=O)NC(=O)[C@@H](NC(=O)[C@H](Cc1ccc(O)cc1)NC(=O)[C@H](Cc1c[nH]cn1)NC(=O)[C@@H](NC(=O)[C@@H](NC(=O)[C@H](CO)NC(=O)[C@H](CC(N)=O)NC(=O)CN)[C@@H](C)CC)[C@@H](C)CC)[C@@H](C)O)C(=O)N[C@@H](CC(N)=O)C(=O)N[C@@H](Cc1ccc(O)cc1)C(=O)N[C@@H](Cc1ccc(O)cc1)C(=O)N[C@@H](CCCCN)C(=O)N[C@@H](CC(=O)O)C(=O)N[C@@H](C)C(=O)N[C@@H](C)C(=O)N[C@@H](CO)C(=O)N[C@@H](CC(N)=O)C(=O)N[C@@H](CO)C(N)=O [VP4-P3]	–	0.712	–	–
CC(C)[C@H](NC(=O)[C@H](CC(=O)O)NC(=O)[C@H](CCCCN)NC(=O)[C@@H](NC(=O)[C@@H]1CCCN1C(=O)[C@H](CCC(=O)O)NC(=O)[C@@H](NC(=O)[C@H](Cc1ccccc1)NC(=O)[C@H](CCCCN)NC(=O)[C@H](CO)NC(=O)[C@@H]1CCCN1C(=O)[C@H](CC(=O)O)NC(=O)[C@H](CCC(N)=O)NC(=O)[C@@H](NC(=O)[C@H](Cc1ccccc1)NC(=O)[C@H](CC(=O)O)NC(=O)[C@H](CCC(N)=O)NC(=O)[C@H](CCCNC(=N)N)NC(=O)[C@H](CC(N)=O)NC(=O)[C@H](C)NC(=O)[C@H](CO)NC(=O)[C@H](CC(N)=O)NC(=O)[C@H](CO)NC(=O)[C@H](C)NC(=O)[C@H](C)NC(=O)[C@H](CC(=O)O)NC(=O)[C@H](CCCCN)NC(=O)[C@H](Cc1ccc(O)cc1)NC(=O)[C@H](Cc1ccc(O)cc1)NC(=O)[C@@H](N)CC(N)=O)[C@@H](C)O)[C@@H](C)O)C(C)C)C(N)=O [VP4-P5]	–	0.968	–	–
H-SKFTEPVKDVMIKSLPALN-NH2 [VP4-P6, NH2-SKFTEPVKDVMIKSLPALN-CONH2]	–	0.600	–	–
VP4CVB4: natural structural internal protein VP4 dissociated and purified from coxsackievirus CVB4 E2	–	1.964	0.711	effect on CVB4/plasma induced IFNα production ([2]; protein preincubated 1 h at 37°C at different concentrations with plasma from healthy subjects, then CVB4, then PBMCs): Decrease; effect on CVB3/plasma induced IFNα production [3]: no change
